Data published in PubChem BioAssay (NCI).
Values joined by “and” are separate entries in the source; they are usually repeats but may differ in a detail not shown here. Identical values can stand only once.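 Compound exposure: 48 hours, 5 concentrations, 96-well plates. At the GI50, growth is halved. TGI is the concentration that stops growth completely.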

Columns and labels:
Assay in all cases: NCI tumour cell line growth inhibition, 48 h
[1] = tested on: HCT-116 colon
[2] = tested on: HCT-15 colon
[3] = tested on: K-562 leukemia
[4] = tested on: LOX IMVI melanoma
[5] = tested on: NCI-H23 lung
[6] = tested on: SF-295 CNS
[7] = tested on: SK-MEL-5 melanoma
[8] = tested on: T-47D breast
[9] = tested on: TK-10 renal
[10] = tested on: UACC-257 melanoma

Compound	GI50 [1]	TGI [1]	GI50 [2]	TGI [2]	GI50 [3]	TGI [3]	GI50 [4]	TGI [4]	GI50 [5]	TGI [5]	GI50 [6]	TGI [6]	GI50 [7]	TGI [7]	GI50 [8]	TGI [8]	GI50 [9]	TGI [9]	GI50 [10]	TGI [10]
CCC(=O)[C@H](C)[C@@H](OC(=O)[C@H](C)CC)[C@H](C)[C@H]1OC(CC)=C(C)C(=O)[C@@H]1C	9.98 µM	72.4 µM	17 µM	42.2 µM	39.3 µM	> 100 µM	16.9 µM	30.5 µM	19.6 µM	92.4 µM	21.8 µM	43.7 µM	15.3 µM	28.8 µM	18.1 µM	> 100 µM	30.7 µM	88.9 µM	33.2 µM	> 100 µM
OCCN(CCO)c1ncnc2c1ncn2Cc1ccc(CCl)cc1	14 µM	33.8 µM	18.4 µM	39.9 µM	17.7 µM	> 100 µM	16.4 µM	30.9 µM	18.3 µM	37.1 µM	17 µM	33.6 µM	10.9 µM	23.3 µM	19.4 µM	36.5 µM	17.1 µM	33.4 µM	13.8 µM	28.9 µM
Cc1ccc(CN2CCC(C(=O)Nc3ccc(-c4cc5ccccc5[nH]4)cc3)CC2)o1	> 100 µM	> 100 µM	> 100 µM	> 100 µM	> 100 µM	> 100 µM	> 100 µM	> 100 µM	> 100 µM	> 100 µM	71 µM	> 100 µM	46.6 µM	> 100 µM	> 100 µM	> 100 µM	> 100 µM	> 100 µM	> 100 µM	> 100 µM
COc1cccc(C2c3cc4c(cc3OC(C)(N3CCCC3)C2C)OCO4)c1O (stereo unspecified)		47.9 µM		29 µM		18.3 µM		19.2 µM		8.9 µM		17.5 µM		13.3 µM		> 100 µM		77.1 µM		> 100 µM
Nc1c(C(=O)c2cccc(CCS(N)(=O)=O)c2)cnn1-c1ccc(F)cc1	> 25 µM	> 25 µM	> 25 µM	> 25 µM	> 25 µM	> 25 µM	> 25 µM	> 25 µM	> 25 µM	> 25 µM	> 25 µM	> 25 µM	> 16.7 µM	> 25 µM	> 20.6 µM	> 25 µM	> 25 µM	> 25 µM	> 25 µM	> 25 µM
NC(N)=NS(=O)(=O)c1ccc(Nc2c3ccccc3nc3c(C(=O)NCCO)cccc23)cc1	21.9 µM	> 100 µM	32.2 µM		35.1 µM		28 µM		26.3 µM		20.5 µM	60.7 µM	15.6 µM		11 µM		18.7 µM		39.4 µM	
COc1ccc(CC2c3cc4c(cc3CCN2C)OCO4)c(C=O)c1OC (stereo unspecified)		> 100 µM		> 100 µM		> 100 µM		> 100 µM		> 100 µM		> 100 µM		> 100 µM		> 100 µM		> 100 µM		> 100 µM
Cc1nc2sccn2c1-c1csc(Nc2ccccc2Cl)n1	3.3 µM	16.2 µM	2.64 µM	32.5 µM	0.586 µM	17.1 µM	4.4 µM	21.6 µM	2.28 µM	35.4 µM	1.55 µM	5.98 µM	2.15 µM	10.3 µM	2.33 µM	66.5 µM	4.44 µM	48.8 µM	3.69 µM	17.9 µM
O=C(Nc1ccccc1)c1c(O)[nH]c(=S)[nH]c1=O	58.6 µM	111 µM and > 250 µM	84.3 µM	72.2 µM and > 250 µM	85.3 µM	114 µM and > 250 µM	54 µM	73.6 µM and > 250 µM	83.6 µM	82.6 µM and > 250 µM		108 µM	40.5 µM	46 µM and 85.2 µM		105 µM		125 µM	83.1 µM	112 µM and > 250 µM
COc1ccc2c(c1)sc1nc(-c3ccccc3)c(-c3cccc4ccccc34)n12	0.615 µM	> 100 µM	0.47 µM	> 38.4 µM	0.328 µM	> 100 µM	0.713 µM	> 100 µM	1.21 µM	> 100 µM	0.415 µM		0.233 µM	0.856 µM	4.38 µM	> 62.2 µM	5.17 µM	> 100 µM	0.532 µM	> 100 µM
CN1CCCCC1CCN1c2ccccc2Sc2ccc(Cl)cc21 (stereo unspecified)	2.57 µM	6.72 µM	2.93 µM	11.7 µM	2.6 µM	7.57 µM			10.7 µM	26.8 µM	3.32 µM	13.5 µM	1.7 µM	3.25 µM	4.25 µM	18.8 µM	2.27 µM	7.09 µM	2.45 µM	5.52 µM
O=C(CCNC12CC3CC(CC(C3)C1)C2)c1ccccc1		29.4 µM		40.2 µM		36.5 µM				48.8 µM		50.2 µM		32.7 µM		55.4 µM		39.6 µM		49.4 µM
FC(F)(F)c1cccc(Nc2nc(-c3ccccc3)nc3ncccc23)c1	3.62 µM	13.7 µM	3.28 µM	23.7 µM	3.17 µM	17.9 µM	4.48 µM	24.6 µM	5.03 µM	28.4 µM	2.61 µM	8.34 µM	4.04 µM	30.8 µM	3.53 µM	15.2 µM	2.61 µM	10.5 µM		
CCOC1Oc2ccccc2C(=O)/C1=C/Nc1ccc(C(C)=O)cc1 (stereo unspecified)	22.8 µM	> 100 µM	17.4 µM	46.3 µM	16.1 µM	40.5 µM	18.9 µM	58.5 µM	13.9 µM	36.2 µM	23.9 µM	62.3 µM	19.1 µM	43 µM	62.7 µM	> 100 µM			19.7 µM	46.9 µM
